pIC50: −log10 of the molar value. Counter-ions that a name gives are not always drawn.

For the assay, the target named is T1, recombinant human arginase 1 (Homo sapiens, UniProt P05089).
T1 sequence (P05089 1-322): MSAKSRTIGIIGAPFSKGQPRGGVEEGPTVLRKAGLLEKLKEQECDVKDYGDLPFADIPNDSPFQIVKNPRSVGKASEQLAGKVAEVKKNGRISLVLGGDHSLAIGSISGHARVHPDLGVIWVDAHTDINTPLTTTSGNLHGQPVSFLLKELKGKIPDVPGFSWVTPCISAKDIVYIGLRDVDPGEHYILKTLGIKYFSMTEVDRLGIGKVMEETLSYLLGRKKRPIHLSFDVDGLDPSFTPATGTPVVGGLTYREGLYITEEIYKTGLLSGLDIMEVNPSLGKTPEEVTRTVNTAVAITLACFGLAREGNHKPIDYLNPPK
Briefly: Arginase inhibitory activity test (urea detection), arginase 1. To be noted: recombinant human arginase 1, L-arginine substrate, 37° C. for 120 min, urea measurement; read-out: Arg 1 enzymatic potency. The format is biochemical. The source says: Arginase Inhibitory Activity Test
Urea was used as the standard.
`CNS(=O)(=O)N1C[C@H](CCCB(O)O)[C@](N)(C(=O)O)C1` (racemic) [Example 2, (rac)trans-3-amino-4-(3-boronopropyl)-1-(N-methylsulfamoyl)pyrrolidine-3-carboxylic acid, (1:1) 2,2,2-trifluoroacetic Acid Salt]: the pIC50 was 4.00 to 6.00. Regarding `NC(=O)CNS(=O)(=O)N1C[C@H](CCCB(O)O)[C@](N)(C(=O)O)C1` (racemic) [Example 7, (rac)trans-3-amino-1-(N-(2-amino-2-oxoethyl)sulfamoyl)-4-(3-boronopropyl)pyrrolidine-3-carboxylic Acid, (1:1) 2,2,2-trifluoroacetic Acid Salt], the pIC50 is 4.00 to 6.00.

Take `CC(C)C(NS(=O)(=O)N1CC(CCCB(O)O)C(N)(C(=O)O)C1)C(=O)O` (racemic) [Example 11, (rac)trans-3-amino-4-(3-boronopropyl)-1-(N—((S)-1-carboxy-2-methylpropyl)sulfamoyl)pyrrolidine-3-carboxylic Acid (Diastereomer), (1:1) 2,2,2-trifluoroacetic Acid Salt]: the pIC50 was 4.00 to 6.00. Consider `CCOC(=O)[C@]1(N)CN(S(=O)(=O)NCCN)C[C@@H]1CCCB(O)O` (racemic) [Example 14, (rac)(3-(trans-4-amino-1-(N-(2-aminoethyl)sulfamoyl)-4-(ethoxycarbonyl)pyrrolidin-3-yl)propyl)boronic Acid, (1:2) 2,2,2-trifluoroacetic Acid Salt], for which the pIC50 was 6.00 to 7.00. Next, `C[C@H](N)CNS(=O)(=O)N1C[C@H](CCCB(O)O)[C@](N)(C(=O)O)C1` (racemic) [Example 18, (rac)trans-3-amino-1-(N—((S)-2-aminopropyl)sulfamoyl)-4-(3-boronopropyl)pyrrolidine-3-carboxylic Acid (Diastereomers), 2,2,2-trifluoroacetic Acid Salt (1:2)]: 6.00 to 7.00. With `N[C@@H]1CCCCC1NS(=O)(=O)N1C[C@H](CCCB(O)O)[C@](N)(C(=O)O)C1` (mixture of isomers) [Example 20, (rac)trans-3-amino-1-(N-((rac)cis-2-aminocyclohexyl)sulfamoyl)-4-(3-boronopropyl)pyrrolidine-3-carboxylic Acid (Diastereomers), 2,2,2-trifluoroacetic Acid Salt (1:2)], the pIC50 was under 4.00.
